Experimental findings from patent US6071905A, “Biologically active substance on the basis of tetracyclic nitrogen heterocycles of pyrimidine row” (Natural Drug Sciences, LLC, priority 1998, dated 2000) are described below.

The subject of the experiment is M. tuberculosis 16R. As to the kind of experiment: action on pathogenic mycobacteria from patients, Lowenstein-Jensen medium, M. tuberculosis 16R. The following applies: title: concentration of compound 10.0 g/l; 30 days; resistant to control compounds. In kind it is cell-based.
For the compound `CC[C@@H](CO)NCCN[C@@H](CC)CO` [Ethambutol, reference compound], the “antimicrobial action, M. tuberculosis 16R” value (shortened to “antimicrobial action”) is given as “growth”.

As for `NNC(=O)c1ccncc1` [Isoniazid, hydrazide of izonicotinic acid, reference compound], the “antimicrobial action” value is reported as “growth”. For the compound `CO[C@H]1/C=C/O[C@@]2(C)Oc3c(C)c(O)c4c(O)c(cc(O)c4c3C2=O)NC(=O)/C(C)=C\C=C\[C@H](C)[C@H](O)[C@@H](C)[C@@H](O)[C@@H](C)[C@H](OC(C)=O)[C@@H]1C` [Rifamycin, reference compound], the “antimicrobial action” value is on record as “growth”. On to `[H]/N=C(/N)N[C@H]1[C@H](O)[C@@H](O)[C@H](O[C@@H]2O[C@@H](C)[C@](O)(C=O)[C@H]2O[C@@H]2O[C@@H](CO)[C@H](O)[C@@H](O)[C@@H]2NC)[C@@H](N/C(N)=N\[H])[C@@H]1O` [Streptomycin, reference compound], for which the “antimicrobial action” value is given as “growth”.
